Experimental findings from patent US9888688B2, “Tetrazolinone compounds and applications thereof” (Sumitomo Chemical Company, Limited, priority 2013, dated 2018) are described below.

Some results are limits rather than exact numbers.

The term mortality denotes the share of the test organisms that died. A higher mortality goes with fewer survivors. The term pest or weed control denotes the degree to which the test organism was suppressed or injured, in per cent.

The test system of one experiment is barley net blotch fungus (Pyrenophora teres). As to the kind of experiment: Barley net blotch control test, foliar spray on barley (Test Examples 4, 16, 17, 18). Type of experiment: in vivo. Particulars: 12.5 ppm foliar spray, barley NISHINOHOSHI, inoculated after 2 days.
In the case of `CCOc1cccc(-n2nnn(C)c2=O)c1COc1ccc(-c2cccc(C)n2)cc1C` [Present Compound 53], the “area of lesion spots relative to that on an untreated plant” value (“area of lesion spots relative to that” below) is given as ≤ 30%.

The next experiment concerns wheat leaf blotch fungus (Septoria tritici). In words: Wheat leaf blotch control test, spray before inoculation (Test Examples 6, 9, 10, Comparative Test Example). Particulars: 500 ppm foliar spray, wheat APOGEE, inoculated after 4 days. Type of experiment: in vivo.
Regarding `Cn1nnn(-c2ccccc2COc2ccc(-c3ccccn3)cc2)c1=O` [Present Compound 223], the “area of lesion spots relative to that” value is ≤ 30%.
Turning to `Cn1nnn(-c2ccccc2COc2ccc(-c3ccccc3)cc2)c1=O` [1-methyl-4-[2-(4-phenyl-phenoxymethyl)-phenyl]-1,4-dihydrotetrazol-5-one, reference compound], the “area of lesion spots relative to that” value was ≥ 70%.

The next experiment has as its system common house mosquito (Culex pipiens pallens). In words: Common house mosquito larvae mortality test (Test Example 30). The class given is in vivo. The following applies: 192 h, 3.5 ppm active ingredient in water, last instar larvae, after 8 days. The method, then:
(§1) In the present Test Example, a water dilution containing a surfactant prepared by adjusting so as to contain a predetermined concentration (500 ppm) of the present compound was used as a test chemical solution.
The above test chemical solution (0.7 mL) was added to 100 mL of deionized water to adjust the concentration of an active ingredient to 3.5 ppm. Twenty (20) heads of last instar larvae of common house mosquito (Culex pipiens pallens) were released in the solution and the number of dead insects was counted after 8 days.
Mortality was determined by the following equation. Mortality (%)=(number of dead insects/number of test insects)×100
The molecule `CCc1cccc(-n2nnn(C)c2=O)c1COc1cc(C)c(-c2ccc(F)cn2)cc1C` [Present Compound 215] came in with a mortality at 3.5 ppm of 100%.
`CCc1cccc(-n2nnn(C)c2=O)c1COc1ccc(-c2nccc(C)n2)cc1C` [Present Compound 93] had a mortality at 3.5 ppm of 100%.
`Cc1cc(-c2ncc(F)cn2)ccc1OCc1c(C)cccc1-n1nnn(C)c1=O` [Present Compound 236] had a mortality at 3.5 ppm of 100%.
On the same count and under the same terms, then `Cc1cc(-c2cccc(C#N)n2)ccc1OCc1c(C2CC2)cccc1-n1nnn(C)c1=O` [Present Compound 116], with 100%; and `Cc1cc(-c2ncc(Cl)cn2)c(F)cc1OCc1c(C)cccc1-n1nnn(C)c1=O` [Present Compound 242], with 100%.

The next experiment concerns cabbage moth (Plutella xylostella). In words: Cabbage moth larvae mortality test on cabbage (Test Example 31). Type of experiment: in vivo. Particulars: 120 h, 500 ppm spray on cabbage 20 mL/cup, third instar larvae, 25° C., after 5 days. The method, then: as §1
Cabbage was planted in each of polyethylene cups and grown until the third true leaf or the fourth true leaf was developed. The above test chemical solution was sprayed over the cabbage (Brassicae oleracea) at a rate of 20 mL/cup. After drying the chemical solution, the polyethylene cup having a volume of 400 mL was covered. Ten (10) heads of third instar larvae of cabbage moth (Plutella xylostella) were released in the cup and the cup was covered with a Tetron fabric. The cup was held at 25° C. and, after 5 days, the number of the surviving insects was counted and the mortality of insects was calculated by the following equation.
Mortality (%)=(number of dead insects/number of test insects)×100
Turning to `Cc1ccnc(-c2ccc(OCc3c(C4CC4)cccc3-n3nnn(C)c3=O)c(C)c2)n1` [Present Compound 92], the mortality at 500 ppm is ≥ 90%.
For `Cc1cccc(-c2ccc(OCc3c(C)cccc3-n3nnn(C)c3=O)c(C)c2)n1` [Present Compound 48], the mortality at 500 ppm was ≥ 90%.

The test system of another experiment is cotton aphid (Aphis gossypii). As to the kind of experiment: Cotton aphid control test on cucumber (Test Example 32). Type of experiment: in vivo. Particulars: 144 h, 20 mL sprayed on cucumber, after 6 days. The method, then: In the present Test Example, a water dilution containing a surfactant prepared by adjusting so as to contain a predetermined concentration (500 ppm) of the present compound was used as a test chemical solution. Thirty (30) heads of cotton aphid (Aphis gossypii) (including adults and larvae) were released on the leaves of cucumber grown in a polyethylene cup until the first true leaf was developed. Next day, 20 mL of the above test chemical solution was sprayed. After 6 days, the number of the surviving insects was counted and the control value was calculated by the following equation. Control value (%)={1−(Cb×Tai)/(Cai×Tb)}×100 wherein symbols in the equation represent the followings: Cb: Number of insects before spraying chemical solution in untreated area; Cai: Number of surviving insects in untreated area; Tb: Number of insects before spraying chemical solution in treated area; and Tai: Number of surviving insects in treated area.
For the molecule `CCc1cccc(-c2ccc(OCc3ccccc3-n3nnn(C)c3=O)c(C(F)(F)F)c2)n1` [Present Compound 130], the pest or weed control at 500 ppm was ≥ 90%.
For `Cc1cccc(-c2ccc(OCc3ccccc3-n3nnn(C)c3=O)c(C(F)(F)F)c2)n1` [Present Compound 127], the pest or weed control at 500 ppm is ≥ 90%.
The same measure, in the same setting: the same measure for `CCc1cccc(-n2nnn(C)c2=O)c1COc1ccc(-c2nccc(C)n2)cc1C(F)(F)F` [Present Compound 138]: ≥ 90%; for `CCc1cccc(-c2ccc(OCc3c(OC)cccc3-n3nnn(C)c3=O)c(C)c2)n1` [Present Compound 45]: ≥ 90%; for `Cc1cccc(-n2nnn(C)c2=O)c1COc1cc(Cl)c(-c2ccccn2)cc1Cl` [Present Compound 210]: ≥ 90%.
Same read-out and setting: the same measure for `CCOc1cccc(-n2nnn(C)c2=O)c1COc1ccc(-c2ccccn2)cc1C` [Present Compound 8]: ≥ 90%; for `Cc1cc(-c2cccc(C(C)C)n2)ccc1OCc1c(C)cccc1-n1nnn(C)c1=O` [Present Compound 149]: ≥ 90%; for `Cc1ccnc(-c2ccc(OCc3ccccc3-n3nnn(C)c3=O)c(C(F)(F)F)c2)n1` [Present Compound 137]: ≥ 90%.
As to `COc1ccncc1-c1cc(C)c(OCc2c(C)cccc2-n2nnn(C)c2=O)cc1C` [Present Compound 192], the pest or weed control at 500 ppm was ≥ 90%.
Same read-out and setting: then `Cc1cc(-c2ncc(F)cn2)c(C)cc1OCc1c(C)cccc1-n1nnn(C)c1=O` [Present Compound 238], with ≥ 90%; and `CCc1cccc(-c2ccc(OCc3c(C)cccc3-n3nnn(C)c3=O)c(C(F)(F)F)c2)n1` [Present Compound 131], with ≥ 90%.
Still for that read-out and setting: then `Cc1ccnc(-c2ccc(OCc3c(Cl)cccc3-n3nnn(C)c3=O)c(C(F)(F)F)c2)n1` [Present Compound 134], with ≥ 90%.
Turning to `Cc1cccc(-c2ccc(OCc3c(C)cccc3-n3nnn(C)c3=O)c(C#N)c2)n1` [Present Compound 156], the pest or weed control at 500 ppm was ≥ 90%.
On the same count and under the same terms, then `Cc1cc(-c2ccc(F)cn2)c(C)cc1OCc1c(C2CC2)cccc1-n1nnn(C)c1=O` [Present Compound 219], with ≥ 90%; and `Cc1cc(-c2ncc(F)cn2)ccc1OCc1c(C)cccc1-n1nnn(C)c1=O` [Present Compound 236], with ≥ 90%; and `Cc1ccnc(-c2ccc(OCc3c(C)cccc3-n3nnn(C)c3=O)c(C)c2)c1` [Present Compound 20], with ≥ 90%.
Consider `Cc1cc(-c2ccc(F)cn2)c(F)cc1OCc1c(C)cccc1-n1nnn(C)c1=O` [Present Compound 195], for which the pest or weed control at 500 ppm was ≥ 90%.
Still for that read-out and setting: then `CCOc1cccc(-n2nnn(C)c2=O)c1COc1ccc(-c2cccc(Cl)n2)cc1C` [Present Compound 41], with ≥ 90%.
The same measure, in the same setting: then `C=C(C)c1cccc(-c2ccc(OCc3c(C)cccc3-n3nnn(C)c3=O)c(C)c2)n1` [Present Compound 148], with ≥ 90%.
On the same count and under the same terms, the same measure for `Cc1cc(-c2cccc(C#N)n2)ccc1OCc1c(C2CC2)cccc1-n1nnn(C)c1=O` [Present Compound 116]: ≥ 90%; for `Cc1ccc(-c2ccc(OCc3c(C)cccc3-n3nnn(C)c3=O)c(C)c2)nn1` [Present Compound 234]: ≥ 90%; for `CCOc1cccc(-n2nnn(C)c2=O)c1COc1ccc(-c2ccc(Cl)cn2)cc1C` [Present Compound 29]: ≥ 90%.
For `COc1cc(-c2cccc(C)n2)ccc1OCc1c(C)cccc1-n1nnn(C)c1=O` [Present Compound 155], the pest or weed control at 500 ppm is ≥ 90%.
For the molecule `Cc1cccc(-c2ccc(OCc3c(C)cccc3-n3nnn(C)c3=O)c(C(F)(F)F)c2)n1` [Present Compound 59], the pest or weed control at 500 ppm is ≥ 90%.
